This note sets out measurements from PubChem BioAssay (NCI).

Molecules are shown by their SMILES. Several values for one entry are separate records, joined by “and”; a condition that tells them apart may be missing. Equal values may be shown once.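 Tested at 5 concentrations; 48 h exposure; 96-well plates; endpoints linearly interpolated, else capped at highest concentration. GI50: concentration for 50% inhibition of growth. TGI: concentration producing complete growth inhibition.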

Common to all, as to assay: growth of human tumour cells (NCI), 48 h
Test [1] has as its system A498 renal.
Test [2] relates to BT-549 breast.
Test [3] deals with COLO 205 colon.
In test [4] the test system is MDA-MB-231 breast.
Test [5] has as its system MOLT-4 leukemia.
Test [6] relates to RXF 393 renal.
For test [7], the system named is SF-295 CNS.
Test [8] has as its system SK-MEL-5 melanoma.
Test [9] concerns SNB-19 CNS.
Test [10] concerns SR leukemia.

For the molecule `O=C(O)C(Cl)Cl`, the GI50 in [1] is 2670 µM and > 10000 µM; in test [2] it was 2780 µM and > 8920 µM; in test [3] it was more than 10000 µM; in [4], more than 10000 µM; in test [5], 8180 µM and > 8700 µM; in [6], 5140 µM and > 10000 µM. Also, the GI50 in test [7] is 4230 µM and > 10000 µM; in [8], more than 10000 µM; in test [9], 7520 µM and > 10000 µM; in test [10], more than 10000 µM. In addition, the TGI in test [1], in test [2], in test [3], in test [4], in test [5] and in test [6] was more than 10000 µM throughout. For the same molecule, the TGI in test [7], in test [8], in test [9] and in test [10] was more than 10000 µM throughout.
Turning to `COC(=O)/C=C/c1cc(OC(C)=O)c2c(c1)[C@@H](C(=O)OC)[C@H](c1ccc(OC(C)=O)c(OC(C)=O)c1)O2`, the GI50 is 1.01 µM in [1]; 0.219 µM in test [2]; 3.57 µM in test [3]; 0.305 µM in test [4]; 0.09 µM in [5]; 0.075 µM in test [6]. Further, the GI50 is 0.285 µM in [7], 0.0493 µM in [8], 0.431 µM in test [9] and 0.0281 µM in test [10]. Besides, the TGI in test [1] is 7.97 µM; in test [2], 32.9 µM; in [3] it was 24.7 µM; in [4] it was 34.4 µM; in test [5], more than 55 µM; in [6] it was 3.03 µM. The TGI in [7] was 11.4 µM; in test [8], 2.34 µM; in [9] it was more than 100 µM; in test [10], more than 49.6 µM.
On to `NC(N)=NS(=O)(=O)c1ccc(N=Nc2c(O)c(C(=O)O)cc3ccccc23)cc1`, for which the TGI in test [2], in test [3], in test [4], in [5], in [6] and in test [7] was more than 100 µM throughout. The TGI in test [8] and in test [10] was more than 100 µM throughout.
Consider `C/C=C/[C@@H]1O[C@@H]2COC(=O)C2=C[C@@H]1O`, for which the GI50 in test [2] was 3.59 µM; in test [3], 2.78 µM; in [4], 19.6 µM; in test [5], 2.2 µM; in [6] it was 15 µM; in test [7], 29.9 µM. For the same molecule, the GI50 in test [8] is 16.7 µM; in [9], 24.2 µM; in [10] it was 9.61 µM. Also, the TGI is 15.2 µM in [2]; more than 19.6 µM in [3]; 39.7 µM in test [4]; 39.7 µM in test [6]; more than 56.4 µM in [7]; 31.5 µM in [8]. Further, the values for the TGI in test [9] and in test [10] were more than 57 µM and more than 100 µM, respectively.
For `O=C1c2c(F)c(F)c(F)c(F)c2C(=O)N1c1ccc(F)cc1F`, the GI50 in test [1] was 25.8 µM; in test [2] it was 11.9 µM; in [3], 10.9 µM; in test [4], 5.53 µM; in test [5] it was 0.864 µM; in test [6], 7.68 µM. In addition, the GI50 in test [7] was 13.7 µM; in test [8], 13.1 µM; in [9], 16.8 µM; in test [10], 0.144 µM. The TGI in [1] is 55.1 µM; in test [2], 28 µM; in test [3], 35.7 µM; in test [4] it was 19.5 µM; in test [5], 3.73 µM; in test [6], more than 46.7 µM. In addition, the TGI was 46.4 µM in test [7], 30.6 µM in test [8], 39.8 µM in [9] and 1.2 µM in test [10].
With `O=C1NC(=NCc2ccccc2)S/C1=C\c1ccc2ncccc2c1`, the GI50 in test [1], in [2], in test [3], in test [4], in [5] and in test [6] was more than 25 µM each time. In addition, the GI50 was more than 25 µM in test [7], more than 25 µM in test [8], more than 25 µM in test [9] and 1.05 µM in [10]. For the same molecule, the TGI in test [1], in test [2], in test [3], in [4], in test [5] and in test [6] was more than 25 µM in each case. Also, the TGI in test [7], in test [8], in [9] and in test [10] was more than 25 µM each time.
Regarding `COc1cc(-c2nc3sccn3c2-c2ccnc(NCCNS(=O)(=O)c3ccc(F)cc3)n2)ccc1F`, the GI50 in test [1] is 2.4 µM; in test [2], 0.292 µM; in test [3], 1.98 µM; in test [4], 2.35 µM; in [6], 0.75 µM; in test [7] it was 2.87 µM. Besides, the GI50 was 1.28 µM in test [8], 5.33 µM in test [9] and 2.51 µM in [10]. The TGI in test [1] was more than 100 µM; in test [2], more than 100 µM; in test [3], more than 100 µM; in [4] it was more than 100 µM; in test [6], 8.2 µM; in test [7], more than 100 µM. Also, the TGI was 2.63 µM in [8], more than 100 µM in test [9] and more than 100 µM in test [10].
As to `Cc1cc2c(cc1C)[n+](=O)c(C(=O)c1ccccc1)c(C(F)F)n2[O-]`, the GI50 was 24.5 µM in [1]; 14.2 µM in [2]; 9.83 µM in [3]; 30.4 µM in [4]; 8.02 µM in [5]; 7.27 µM in [7]. In addition, the results for the GI50 in test [8], in [9] and in test [10] were 9.3 µM, 44.2 µM and 4.39 µM, respectively. In addition, the TGI was 91.1 µM in test [1]; 65.3 µM in test [2]; 35.5 µM in [3]; more than 100 µM in [4]; 43.1 µM in [5]; 42.5 µM in test [7]. Besides, the results for the TGI in test [8], in test [9] and in test [10] were 25 µM, more than 100 µM and 98.4 µM, respectively.
On to `C=C(C)C12OC1[C@@]1(C)C(=CC2=O)CCC(O)[C@@H]1C` (stereo not given in full), for which the TGI in test [1] is 62.5 µM; in test [2] it was 50.8 µM; in test [3] it was 6.5 µM; in [4], 7.11 µM; in [5], 3.66 µM; in test [7], more than 100 µM. The TGI was 36.7 µM in test [8], 33.2 µM in [9] and 11.3 µM in [10].
As for `COc1cc2c(cc1OC)-c1cc(OC)c(OC)cc1C(CN(C)C)C2` (stereo not given), the GI50 in test [1], in [2], in test [4], in [5], in test [6] and in test [7] was more than 10 µM each time. Moreover, the GI50 in test [8], in [9] and in [10] was more than 10 µM throughout. Besides, the TGI in test [1], in test [2], in test [4], in test [5], in test [6] and in test [7] was more than 10 µM in each case. Further, the TGI in test [8], in [9] and in test [10] was more than 10 µM each time.
Turning to `CC(=O)OCc1ccc2c(c1)C(O)NC(=O)O2` (stereo not given), the TGI in test [2], in test [3], in test [4], in test [5], in test [6] and in test [7] was more than 100 µM each time. Also, the TGI in test [8], in [9] and in test [10] was more than 100 µM throughout.
Take `COc1ccc(C(c2cc(OC)c(OC)c(OC)c2)n2cncn2)cc1O` (stereo not given): the GI50 was 0.324 µM in test [1]; 0.618 µM in test [2]; 0.332 µM in test [3]; 1.5 µM in test [4]; 0.51 µM in test [5]; 0.321 µM in test [6]. The GI50 in test [7] is 0.325 µM; in test [8], 0.44 µM; in test [9], 0.578 µM. Also, the TGI in [1] was 0.957 µM; in [2] it was more than 100 µM; in test [3], 1.54 µM; in test [4], more than 100 µM; in [5] it was more than 100 µM; in test [6], more than 100 µM. The TGI is more than 100 µM in test [7], 38.3 µM in test [8] and more than 100 µM in test [9].
Turning to `Fc1cc(-c2nnc3n2N=C(c2ccc(Cl)cc2)CS3)c(Cl)cc1Cl`, the GI50 was 21 µM in [1]; 3.27 µM in [2]; 7.08 µM in [3]; 6.57 µM in [4]; 5.57 µM in test [6]; 17 µM in [7]. In addition, the results for the GI50 in test [8], in [9] and in test [10] were 3.91 µM, 19.1 µM and 0.49 µM, respectively. For the same molecule, the TGI in test [1] turned out to be 42.4 µM; in [2] it was 8.66 µM; in test [3], 49.1 µM; in test [4] it was 18.2 µM; in [6], 14.7 µM; in test [7], 34.7 µM. In addition, the TGI in test [8] is 15 µM; in test [9] it was 51.1 µM; in test [10] it was more than 100 µM.
As to `C[C@@H]1CC[C@H]2C(C)(C)[C@H]3C[C@@]12CC[C@@]3(C)O`, the TGI in test [1], in test [2], in test [3], in [4], in test [5] and in test [7] was more than 100 µM throughout. In addition, the TGI was more than 100 µM in test [8], more than 100 µM in [9] and 48.6 µM in test [10].
For the molecule `CC(C)(C)[Si](C)(C)OC1[C@@H](O[Si](C)(C)C(C)(C)C)[C@@H](CNC(=O)NC(=O)C(F)(F)F)O[C@H]1n1cnc2c(NC(=O)Nc3ccccc3)ncnc21` (stereo not given in full), the GI50 in [1] was 6.34 µM; in [2] it was 6.81 µM; in test [3], 6.03 µM; in test [4] it was 6.16 µM; in [5] it was 1.67 µM; in test [6], 1.3 µM. The results for the GI50 in test [8] and in [10] were 2.72 µM and 1.52 µM, respectively. Moreover, the TGI in test [1] was 13 µM; in test [2], 13.4 µM; in test [3] it was 12.8 µM; in test [4], 14.2 µM; in [5], 7.03 µM; in test [6] it was 4.25 µM. Also, the TGI in test [8] is 9.18 µM; in test [10], 5.25 µM.
In the case of `CN1CCN(c2ccc(Nc3ncc(Cl)c(NC[C@@H]4CCCO4)n3)cc2)CC1`, the GI50 in [1] is 0.803 µM; in test [2], 2.24 µM; in test [3] it was 0.547 µM; in test [4], 1.62 µM; in [6], 0.746 µM; in [7], 1.26 µM. Moreover, the GI50 is 2.52 µM in [8], 3.69 µM in test [9] and 0.513 µM in test [10]. In addition, the TGI in test [1] worked out at 3.36 µM; in test [2], 6.94 µM; in test [3], 2.96 µM; in test [4], 8.29 µM; in [6] it was 3.42 µM; in [7], 26.3 µM. Also, the TGI in test [8] is 13.6 µM; in test [9], more than 100 µM; in test [10], 6.03 µM.
For the molecule `Br[Se]c1ccccn1`, the TGI in test [1] was found to be 34 µM; in test [2], 32.9 µM; in [3], 30.8 µM; in test [4], 31.5 µM; in [6], 31 µM; in [7], 17 µM. Further, the TGI was determined as 28.9 µM in test [8], 24.8 µM in test [9] and 65.8 µM in test [10].
Turning to `CCC(C)SC1SCC2C(=O)N(C)C3(CC3C)C(=O)OCC(NC(=O)c3nc4ccccc4cc3O)C(=O)NC(C)C(=O)N(C)C1C(=O)N(C)C1(CC1C)C(=O)OCC(NC(=O)c1nc3ccccc3cc1O)C(=O)NC(C)C(=O)N2C` (stereo not given), the TGI in [1] is 0.000492 µM; in test [2], 0.000693 µM; in test [3] it was 0.000194 µM; in [4] it was 0.000567 µM; in test [5], 0.0687 µM; in test [6], 0.000154 µM. Also, the TGI in [7] is 0.00153 µM; in test [8], 0.000112 µM and < 0.0142 µM; in [9], 0.0296 µM. Besides, the GI50 in [8] was 2.91e-05 µM.
